Entries after “also recorded” stand apart in the source; their conditions may differ.

The values below come from patent US20180185391A1, “Drug Treatment Of Psoriasis And Of Other Skin Disorders Associated With Inhibition Of Differentiation Of Epidermal Cells” (priority 2016, published 2018).

The subject of one data set is psoriatic lesions. The experiment in a line: Clinical observation of psoriatic plaques under topical treatment. In kind it is in vivo, human. As for the experimental part: The base cream used is made predominantly of heavy paraffin oil (10% w/w), vaseline (10% w/w), stearyl alcohol (8% w/w), polyoxylsteareth-40 (3% w/w) and water (68% w/w) but another suitably formulated base cream is also possible. […] The dosing and the application schedules followed for the lesion shown in FIG. 1A (psoriatic plaque on the dorsum of hand) are as follows: about 30 μl cream applied directly onto the lesion with the aid of a steel spatula every four hours for 24 hours. The cream-applied area is protected from accidental smearing and loss of the cream by covering with an aluminum applicator (FIG. 1 B). The dosing and the application schedules followed for the lesion shown in FIG. 1 D (psoriatic plaque at the scapular region) are as follows: about 30 μl cream applied directly onto the lesion every four hours for 24 hours. The cream-applied area is similarly covered against the smearing and loss of cream. Other treated psoriatic patients and lesions received from about 30 to 35 μl cream to each lesion at intervals of every 3 to 5 hours, as suitable and convenient. Lesions were similarly covered against the smearing and loss of cream. […] The corticosteroid used for treatment of the lesion shown in FIG. 4E was clobetasol 17-propionate in a final concentration of about 1.1 mM in base cream.

The subject of data set [1] is palmoplantar pustulosis lesions. As to conditions: 0.55 mM alone for 4 days; cited from earlier work.
For another data set, the system named is human epithelial antigen. Nature of the data set: Immunohistochemical staining for epithelial antigen with Ber-EP4 antibody. The class given is in vivo. The source says: All reaction conditions were as recommended by the manufacturer.
The monoclonal antibody Ber-EP4 is known to label the basal layer cells in normal epidermis. The outer root sheath of hair follicles, where the hair stem cells are thought to reside, are also known to be labeled with Ber-EP4.

The subject of the next data set is psoriatic lesional skin. The experiment in a line: Histopathological examination (H&E) of treated psoriatic lesional skin sections. The class given is in vivo, human. As to conditions: 24th hour of treatment. As to the method: FIG. 1A and FIG. 1C show a psoriatic plaque before and after exposure to cyclopamine and the rapid clinical regression. The cyclopamine cream was applied to the proximal half of this lesion present on the dorsum of right hand of a patient having plaque-type psoriasis. At intervals of 4 hours, approximately 30 μl cream was applied directly onto the lesion and the cream-applied region was covered against accidental smearing and loss of the cream (FIG. 1 B).
FIG. 2A to FIG. 2W show histopathological and immunohistochemical examination findings of the tissue sections from the non-lesional skin, cyclopamine-treated lesional skin and non-treated lesional skin. Compared to the non-lesional skin (FIG. 2A), the non-treated lesional skin (FIG. 2B) is seen to display the typical histopathological signs of a psoriatic skin lesion mentioned above in the “Background of Invention”. […] These histopathological signs of regression to normalcy, exemplified in the figures FIG. 2C and FIG. 2D (examples from other cyclopamine-treated lesions and patients are given later) include the following: […]

A further data set concerns healthy skin. The experiment in a line: Follow-up of healthy and non-lesional skin for adverse effects of topical cyclopamine. The conditions noted are these: for adverse effect on healthy / non-lesional skin: topical application under the described concentration and dosing conditions. The source says:
Genetic heterogeneity and different ages of the psoriatic patients as well as the localizational heterogeneity of psoriatic lesions throughout body invite evaluation of the use of cyclopamine on different patients and lesions.
As there is evidence for the involvement of the hedgehog/smoothened signal transduction pathway in the maintenance of epidermal stem cells, untoward side effects of cyclopamine on skin are, a priori, possible and must be excluded.

The test system of another data set is cytokeratin 15. The experiment in a line: Immunohistochemical staining with C8/144B antibody (cytokeratin 15). From the text:
All antibodies and reagents for these immunohistochemical investigations were purchased from DAKO (Glostrup, Denmark); human Ki-67 antigen was detected by the monoclonal antibody M7187, human epithelial antigen was detected by the monoclonal antibody Ber-EP4, human CD4 antigen was detected by the monoclonal antibody M0716, human CD8 antigen was detected by the monoclonal antibody C8/144B. Besides the CD8 antigen, the monoclonal antibody C8/144B is known to recognize and bind to the cytokeratin 15 expressed by the hair stem cells (Kanitakis J. et al. (1999) Eur. J. Dermatol. 9:363-365). A DAKO “universal visualization kit” (LSAB2) employing biotinylated secondary antibody and peroxidase-conjugated streptavidin (pre-diluted to match the dilutions of DAKO-supplied primary antibodies) was used for the visualization reactions. All reaction conditions were as recommended by the manufacturer.

The mark [2] stands for this setting: psoriatic lesional skin, 24th hour of treatment.

`CCC(=O)O[C@]1(C(=O)CCl)[C@@H](C)C[C@H]2[C@@H]3CCC4=CC(=O)C=C[C@]4(C)[C@@]3(F)[C@@H](O)C[C@@]21C` [clobetasol 17-propionate, reference compound]: the “regression or clearance of psoriatic lesions” value with psoriatic lesions (about […], alone, four days of treatment) is reported as “unable to cause a significant regression or clearance”. Further, the “effect on palmoplantar pustulosis lesions” value in data set [1] is given as “not to produce a perceptible effect”.
Regarding `CC1=C2C[C@H]3[C@@H](CC=C4C[C@@H](O)CC[C@@]43C)[C@@H]2CC[C@]12O[C@@H]1C[C@H](C)CN[C@H]1[C@H]2C` [cyclopamine], in the data set with psoriatic lesions (12th hour of treatment, scapular plaque, cyclopamine applied for a day then discontinued), the “erythema of the psoriatic plaque” value is “decreased erythema”. In the data set on psoriatic lesions (every lesion treated, unrelated patients 29 to 57 years, extremities to trunk), the “effectiveness on psoriatic lesions (regression and clearance)” value was “highly effective”. The “state of the psoriatic plaque” value in the data set on psoriatic lesions (fourth day of follow-up, scapular plaque, 1 day of treatment, still visible) is “marked regression”. The “lesions subjected to the single-day treatment that failed to clear completely” value in the data set on psoriatic lesions (human, in vivo) is on record as “about 29%”. Moreover, the “day on which the lesion cleared” value in the data set on psoriatic lesions (scapular plaque, cyclopamine applied for a day then discontinued) was > 8 days. The “Ber-EP4 labeling of basal cells of non-lesional skin” value in the data set with human epithelial antigen (non-lesional skin after exposure to cyclopamine) was “remained Ber-EP4 positive”. Further, in the data set on human epithelial antigen (setting [2]), the “Ber-EP4 labeling of epidermal basal layer cells” value is on record as “reverted to normalcy; also recorded: reversion to normalcy; also recorded: Epidermal basal layer cells are seen to display the epithelial antigen”. Further, in the data set with psoriatic lesional skin, the “granular layer of epidermis” value was “Re-appearance of the granular layer”; the “histopathological signs of the psoriatic lesion” value is “dramatic improvement and regression to normalcy; also recorded: regression of the psoriatic plaque”. For the same molecule, in the data set with healthy skin (follow-up over a period of more than 31 months), the “appearance of skin sites of cyclopamine application” value was “healthy-looking normal skin and hair”. In addition, the “adverse effect on healthy / non-lesional skin” value with healthy skin is reported as “no adverse effect has been detected”. Further, the “adverse effect on healthy / non-lesional skin” value in the data set with healthy skin (listed as Cyclopamine) is given as “did not adversely affect the non-lesional skin; also recorded: no detectable adverse effect”. Further, the “cytokeratin 15 in basal cells of non-lesional epidermis” value in the data set on cytokeratin 15 (non-lesional epidermis exposed to cyclopamine) is “continued to be positive for the cytokeratin 15”. Also, in the data set with cytokeratin 15 (setting [2]), the “C8/144B (cytokeratin 15) labeling of epidermal basal layer cells” value was “normalized and became labeled by the C8/144B antibody; also recorded: reversion to normalcy”.
